ChEMBL document CHEMBL4130480, “Serinolamides and Lyngbyabellins from an Okeania sp. Cyanobacterium Collected from the Red Sea” (J Nat Prod, 2017)
Active and inactive are the calls of the source. The calls are words filed in the database; no cut-off is given here.

How the values were obtained:
[1] = test system: Amphibalanus amphitrite; experiment: Antifouling activity against cypris stage of Amphibalanus amphitrite larvae assessed as inhibition of larval settlement at < 1 ug/ml after 48 to 120 hrs by microscopic analysis; type: functional, organism-based
[2] = test system: MCF7; experiment: Growth inhibition of human MCF7 cells after 72 hrs by MTT assay; type: functional; details: MCF7, 72 h
[3] = test system: NCI-H460; experiment: Growth inhibition of human H460 cells after 72 hrs by MTT assay; type: functional; details: NCI-H460, 72 h
[4] = test system: N2a; experiment: Growth inhibition of mouse Neuro2a cells after 72 hrs by MTT assay; type: functional

Row | GI50 [2] | GI50 [3] | SMILES | inhibition [1] | GI50 [4]
1 | 9 µM |  | CCCC(=O)N[C@@H](CC(C)C)[C@H](O)CC(=O)OC[C@@H](O)c1nc(C(=O)O[C@@H](CCCC(C)(Cl)Cl)[C@H](C)C(=O)O[C@H](c2nc(C(=O)OC)cs2)C(C)(C)O)cs1 |  | 
2 | > 160 µM |  | COC(=O)c1csc([C@@H](OC(=O)[C@@H](C)[C@H](CCCC(C)(Cl)Cl)OC(=O)c2csc([C@H](O)CO)n2)C(C)(C)O)n1 |  | 

More lines, now with the values behind:

Row | SMILES | GI50 [2] | GI50 [3] | inhibition [1] | GI50 [4]
3 | CCCCCCCCCCCCC/C=C(\C)C(=O)N[C@@H](CO)COC |  |  | Active | 
4 | C[C@@H]1C(=O)O[C@@H](C(C)(C)O)c2nc(cs2)C(=O)OC[C@@H](O)c2nc(cs2)C(=O)O[C@H]1CCCC(C)(Cl)Cl | 120 µM | 2.2 µM |  | 4.8 µM
5 | CCCCCCCCCCCCC/C=C(\C)C(=O)N[C@H](COC)COC(C)=O |  |  | Active | 
